Several values for one entry are separate records, joined by “and”; a condition that tells them apart may be missing. Identical values can stand only once.
What was measured:
Type in all cases: biochemical
HSA = biological target: T1, HSA (Homo sapiens, UniProt P0DUB6); assay: Binding mode (distribution of hydrolysis products) by HPLC; details: for Hydrolysis product G2P: share of product G2P; for Hydrolysis product G3P: share of product G3P; for Hydrolysis product G4P: share of product G4P; for Hydrolysis product GP: share of product GP
T1 sequence (P0DUB6 16-511): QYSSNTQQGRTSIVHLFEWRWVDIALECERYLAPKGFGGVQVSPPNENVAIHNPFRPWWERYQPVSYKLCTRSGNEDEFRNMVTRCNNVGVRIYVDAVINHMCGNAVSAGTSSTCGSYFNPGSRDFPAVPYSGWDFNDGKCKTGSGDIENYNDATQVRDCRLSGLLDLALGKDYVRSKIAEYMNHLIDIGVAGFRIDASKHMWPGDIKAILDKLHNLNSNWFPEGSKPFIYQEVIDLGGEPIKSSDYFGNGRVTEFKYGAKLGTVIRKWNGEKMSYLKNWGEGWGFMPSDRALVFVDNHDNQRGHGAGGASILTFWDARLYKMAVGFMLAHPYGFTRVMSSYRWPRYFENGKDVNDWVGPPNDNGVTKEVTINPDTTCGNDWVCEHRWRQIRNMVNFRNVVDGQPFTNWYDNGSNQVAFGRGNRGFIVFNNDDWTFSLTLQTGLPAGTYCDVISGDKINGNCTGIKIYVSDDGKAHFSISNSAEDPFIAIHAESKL
Method: (§1) The binding mode of each substrate were measured with high-performance liquid chromatography (HPLC) as described above.

HPA [1] = biological target: T2, HPA (Homo sapiens, UniProt P04746); assay: as above; details: for Hydrolysis product G2P: share of product G2P; for Hydrolysis product G3P: share of product G3P; for Hydrolysis product G4P: share of product G4P; for Hydrolysis product GP: share of product GP
T2 sequence (P04746 16-511): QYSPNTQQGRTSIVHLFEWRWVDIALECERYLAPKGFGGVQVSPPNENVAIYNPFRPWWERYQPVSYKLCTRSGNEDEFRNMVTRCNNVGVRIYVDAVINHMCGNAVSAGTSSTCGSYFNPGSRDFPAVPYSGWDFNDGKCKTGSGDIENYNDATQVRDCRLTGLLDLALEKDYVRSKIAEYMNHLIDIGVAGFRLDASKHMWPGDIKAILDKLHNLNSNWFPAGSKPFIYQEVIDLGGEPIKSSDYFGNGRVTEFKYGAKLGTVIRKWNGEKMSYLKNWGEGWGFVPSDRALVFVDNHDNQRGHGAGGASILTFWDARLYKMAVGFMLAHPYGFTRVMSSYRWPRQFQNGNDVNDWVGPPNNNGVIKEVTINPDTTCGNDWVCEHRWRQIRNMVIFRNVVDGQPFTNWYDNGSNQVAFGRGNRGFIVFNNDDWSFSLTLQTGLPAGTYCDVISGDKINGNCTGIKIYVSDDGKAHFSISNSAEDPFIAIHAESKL
Method: as §1

[2] = biological target: T3, human pancreatic α-amylase (HPA) (Homo sapiens, UniProt P04746); assay: Hydrolysis rate of substrates by α-amylase (relative to G5P); details: substrate 1.0 mM, pH 7, value of G5P taken as 1
T3 sequence (P04746 16-511): T2 sequence (P04746 16-511)
Method: (§2) The above-mentioned advantages can be shown by using the following oligosaccharides: [drawing 6] n = 2: BG4P n = 3: BG5P (the present invention) n = 4: BG6P n = 5: BG7P [drawing 7] n = 2: G4P n = 3: G5P (standard) n = 4: G6P n = 5: G7P [drawing 8] n = 2: BDG4P n = 3: BDG5P n = 4: BDG6P n = 5: BDG7P The hydrolysis rate is measured by using human pancreatic α-amylase (HPA) or human salivary α-amylase (HSA) for each substrate (1.0 mM) at pH 7, and evaluating by means of relative values by taking the value of G5P as 1.

[3] = biological target: T4, human salivary α-amylase (HSA) (Homo sapiens, UniProt P0DUB6); assay: as above; details: substrate 1.0 mM, pH 7, value of G5P taken as 1
T4 sequence (P0DUB6 16-511): T1 sequence (P0DUB6 16-511)
Method: as §2

HPA [4] = biological target: T2, HPA; assay: Km determination (Lineweaver-Burk plot, products measured by HPLC); details: 50 mM BES/NaOH buffer pH 7.6, 37°C, 5 min
Method: The amounts of the products were measured with HPLC.

| Hydrolysis product (result in words) (HSA) | Hydrolysis product (result in words) (HPA [1]) | hydrolysis rate (relative value) [2] | hydrolysis rate (relative value) [3] | Hydrolysis product G2P (HSA) | Hydrolysis product G3P (HSA) | Hydrolysis product G4P (HSA) | Hydrolysis product GP (HSA) | Hydrolysis product G2P (HPA [1]) | Hydrolysis product G3P (HPA [1]) | Hydrolysis product G4P (HPA [1]) | Hydrolysis product GP (HPA [1]) | Km (HPA [4]) | SMILES |
| --- | --- | --- | --- | --- | --- | --- | --- | --- | --- | --- | --- | --- | --- |
| Not hydrolyzed | Not hydrolyzed | 0 | 0 | – | – | – | – | – | – | – | – | – | O=[N+]([O-])c1ccc(O[C@H]2O[C@H](CO)[C@@H](O[C@H]3O[C@H](CO)[C@@H](O[C@H]4O[C@H](CO)[C@@H](O[C@H]5O[C@@H]6COC(c7ccccc7)O[C@H]6[C@H](O)[C@H]5O)[C@H](O)[C@H]4O)[C@H](O)[C@H]3O)[C@H](O)[C@H]2O)cc1 (some centres unmarked) [BDG4P] |
| Not hydrolyzed | Not hydrolyzed | 0 | 0 | – | – | – | – | – | – | – | – | – | O=[N+]([O-])c1ccc(O[C@H]2O[C@H](CO)[C@@H](O[C@H]3O[C@H](CO)[C@@H](O[C@H]4O[C@H](CO)[C@@H](O[C@H]5O[C@H](CO)[C@@H](O[C@H]6O[C@@H]7COC(c8ccccc8)O[C@H]7[C@H](O)[C@H]6O)[C@H](O)[C@H]5O)[C@H](O)[C@H]4O)[C@H](O)[C@H]3O)[C@H](O)[C@H]2O)cc1 (some centres unmarked) [BDG5P] |
| – | – | 0.4 | 0.5 | 66% | 10% | 0% | 24% | 73% | 12% | 0% | 15% | – | O=[N+]([O-])c1ccc(O[C@H]2O[C@H](CO)[C@@H](O[C@H]3O[C@H](CO)[C@@H](O[C@H]4O[C@H](CO)[C@@H](O[C@H]5O[C@H](CO)[C@@H](O[C@H]6O[C@H](CO)[C@@H](O[C@H]7O[C@@H]8COC(c9ccccc9)O[C@H]8[C@H](O)[C@H]7O)[C@H](O)[C@H]6O)[C@H](O)[C@H]5O)[C@H](O)[C@H]4O)[C@H](O)[C@H]3O)[C@H](O)[C@H]2O)cc1 (some centres unmarked) [BDG6P] |
| – | – | 1.1 | 1.0 | 55% | 25% | 15% | 5% | 48% | 22% | 13% | 7% | 86 µM and 88.1 µM | O=[N+]([O-])c1ccc(O[C@H]2O[C@H](CO)[C@@H](O[C@H]3O[C@H](CO)[C@@H](O[C@H]4O[C@H](CO)[C@@H](O[C@H]5O[C@H](CO)[C@@H](O[C@H]6O[C@H](CO)[C@@H](O[C@H]7O[C@H](CO)[C@@H](O[C@H]8O[C@@H]9COC(c%10ccccc%10)O[C@H]9[C@H](O)[C@H]8O)[C@H](O)[C@H]7O)[C@H](O)[C@H]6O)[C@H](O)[C@H]5O)[C@H](O)[C@H]4O)[C@H](O)[C@H]3O)[C@H](O)[C@H]2O)cc1 (some centres unmarked) [BDG7P] |
| – | – | 0.55 | 0.60 | 10% | 0% | 0% | 90% | 8% | 0% | 0% | 92% | – | O=[N+]([O-])c1ccc(O[C@H]2O[C@H](CO)[C@@H](O[C@H]3O[C@H](CO)[C@@H](O[C@H]4O[C@H](CO)[C@@H](O[C@H]5O[C@H](COCc6ccccc6)[C@@H](O)[C@H](O)[C@H]5O)[C@H](O)[C@H]4O)[C@H](O)[C@H]3O)[C@H](O)[C@H]2O)cc1 [BG4P] |
| – | – | 1.4 | 1.4 | 29% | 68% | 0% | 3% | 23% | 73% | 0% | 4% | – | O=[N+]([O-])c1ccc(O[C@H]2O[C@H](CO)[C@@H](O[C@H]3O[C@H](CO)[C@@H](O[C@H]4O[C@H](CO)[C@@H](O[C@H]5O[C@H](CO)[C@@H](O[C@H]6O[C@H](CO)[C@@H](O[C@H]7O[C@H](COCc8ccccc8)[C@@H](O)[C@H](O)[C@H]7O)[C@H](O)[C@H]6O)[C@H](O)[C@H]5O)[C@H](O)[C@H]4O)[C@H](O)[C@H]3O)[C@H](O)[C@H]2O)cc1 [BG6P] |
| – | – | 1.5 | 1.5 | 15% | 38% | 45% | 2% | 20% | 38% | 40% | 2% | – | O=[N+]([O-])c1ccc(O[C@H]2O[C@H](CO)[C@@H](O[C@H]3O[C@H](CO)[C@@H](O[C@H]4O[C@H](CO)[C@@H](O[C@H]5O[C@H](CO)[C@@H](O[C@H]6O[C@H](CO)[C@@H](O[C@H]7O[C@H](CO)[C@@H](O[C@H]8O[C@H](COCc9ccccc9)[C@@H](O)[C@H](O)[C@H]8O)[C@H](O)[C@H]7O)[C@H](O)[C@H]6O)[C@H](O)[C@H]5O)[C@H](O)[C@H]4O)[C@H](O)[C@H]3O)[C@H](O)[C@H]2O)cc1 [BG7P] |
| – | – | 0.70 | 0.75 | 74% | 0% | 0% | 26% | 55% | 0% | 0% | 45% | – | O=[N+]([O-])c1ccc(O[C@H]2O[C@H](CO)[C@@H](O[C@H]3O[C@H](CO)[C@@H](O[C@H]4O[C@H](CO)[C@@H](O[C@H]5O[C@H](CO)[C@@H](O)[C@H](O)[C@H]5O)[C@H](O)[C@H]4O)[C@H](O)[C@H]3O)[C@H](O)[C@H]2O)cc1 [Substrate G4P] |
| – | – | 1.7 | 1.7 | 40% | 53% | 0% | 7% | 22% | 76% | 0% | 2% | – | O=[N+]([O-])c1ccc(O[C@H]2O[C@H](CO)[C@@H](O[C@H]3O[C@H](CO)[C@@H](O[C@H]4O[C@H](CO)[C@@H](O[C@H]5O[C@H](CO)[C@@H](O[C@H]6O[C@H](CO)[C@@H](O[C@H]7O[C@H](CO)[C@@H](O)[C@H](O)[C@H]7O)[C@H](O)[C@H]6O)[C@H](O)[C@H]5O)[C@H](O)[C@H]4O)[C@H](O)[C@H]3O)[C@H](O)[C@H]2O)cc1 [Substrate G6P] |
| – | – | 1.8 | 1.8 | 8% | 30% | 60% | 2% | 14% | 30% | 55% | 1% | – | O=[N+]([O-])c1ccc(O[C@H]2O[C@H](CO)[C@@H](O[C@H]3O[C@H](CO)[C@@H](O[C@H]4O[C@H](CO)[C@@H](O[C@H]5O[C@H](CO)[C@@H](O[C@H]6O[C@H](CO)[C@@H](O[C@H]7O[C@H](CO)[C@@H](O[C@H]8O[C@H](CO)[C@@H](O)[C@H](O)[C@H]8O)[C@H](O)[C@H]7O)[C@H](O)[C@H]6O)[C@H](O)[C@H]5O)[C@H](O)[C@H]4O)[C@H](O)[C@H]3O)[C@H](O)[C@H]2O)cc1 [Substrate G7P] |
